According to patent publication US6770799B2, “Expression of recombinant human acetylcholinesterase in transgenic plants” (priority 2000, dated 2004):

Legend:
[1] = molecular target: T1, human AChE derived from erythrocytes (Homo sapiens, UniProt P22303); assay: Inhibition of AChE from human erythrocytes (Ellman assay); assay type: biochemical
T1 construct: a commercially available preparation of AChE from human erythrocytes; purchased; host or cells: human erythrocytes

[2] = molecular target: T2, plant derived recombinant AChE (rAChE) (Homo sapiens, UniProt P22303); assay: Inhibition of plant-derived recombinant AChE (Ellman assay); assay type: biochemical; conditions: for inhibition of plant derived rAChE: 1 mM acetylthiocholine
T2 construct: We expressed the engineered AChE-E4 form, encoded by exons 2-4 of the human gene; made in house; host or cells: transgenic tomato (Lycopersicum esculentum cv. Micro-Tom), cleared leaf extracts

[3] = Km determination of plant-derived hAChE (Ellman assay, Lineweaver-Burk analysis); assay type: biochemical; conditions: acetylthiocholine 0.05-50 mM; four expressing lines
Description: Scaled-down microtiter plate Ellman assays were performed, according to standard methods, which are well known in the art. […] At the end of the 30 minute incubation period, 100 μl of 1 mM 5-5′-dithio-bis(2-nitrobenzoate) (Ellman's reagent) and 2 mM acetylthiocholine in assay buffer was added. Hydrolysis was monitored by measuring optical density at 405 nm at 5 minute intervals for 30 minutes, using a microtiter plate spectrophotometer, plotted against time, and initial rates were calculated from the slope of the linear portion of the graph. Net hydrolysis rates were calculated by subtracting the rates measured in the presence of BW284c15 from those obtained in its absence. To determine the Km, the concentration of the acetylthiocholine substrate in the Ellman's reagent was varied in the range of 0.05-50 mM.

[4] = Heat and storage stability of AChE activity in crude leaf extracts; assay type: physicochemical
Description: To evaluate the heat stability of the enzyme, plant extracts were incubated for 30 minutes at the indicated temperatures and then assayed as described above. Stability of the enzymatic activity was determined at 4 degrees C. and at 25 degrees C. by incubating plant extracts at the respective temperatures and assaying samples at the indicated time points.
The plant-derived hAChE in total soluble protein extracts retained 50% of its initial activity after incubation at 42 degrees for at least 30 minutes (FIG. 5A). Crude leaf extracts were incubated at the indicated temperatures for 30 minutes and then subjected to Ellman's AChE assay. […] The activity was very stable at 4 degrees C., with only 20% loss after 24 hours (FIG. 5B). Crude leaf extracts were incubated at 4 degrees C. or at 25 degrees C. for the indicated time periods and then assayed for AChE activity.

T1 sequence (P22303 32-617 isoform P22303-2 limits assumed): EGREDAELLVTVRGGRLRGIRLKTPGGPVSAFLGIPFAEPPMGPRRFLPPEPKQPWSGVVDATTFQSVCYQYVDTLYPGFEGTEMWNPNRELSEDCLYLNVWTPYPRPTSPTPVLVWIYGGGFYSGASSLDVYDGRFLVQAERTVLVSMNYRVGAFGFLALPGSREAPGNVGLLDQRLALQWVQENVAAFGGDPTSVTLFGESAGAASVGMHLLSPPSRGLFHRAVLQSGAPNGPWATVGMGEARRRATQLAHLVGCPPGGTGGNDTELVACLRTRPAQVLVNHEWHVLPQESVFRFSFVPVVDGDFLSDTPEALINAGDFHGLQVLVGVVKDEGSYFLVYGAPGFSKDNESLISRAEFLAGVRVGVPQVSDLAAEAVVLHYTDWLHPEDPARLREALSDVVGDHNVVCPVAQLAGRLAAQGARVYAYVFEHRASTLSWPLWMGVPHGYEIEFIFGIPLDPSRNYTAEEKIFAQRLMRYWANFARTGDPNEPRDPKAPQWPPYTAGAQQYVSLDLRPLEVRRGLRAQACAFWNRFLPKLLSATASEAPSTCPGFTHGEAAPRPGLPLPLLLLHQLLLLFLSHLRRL

**Q.** For `CC(C)NP(=O)(NC(C)C)OP(=O)(NC(C)C)NC(C)C` [Iso-OMPA, tetraisopropyl pyrophosphoramide], which “inhibition of erythrocyte-derived enzyme” value ([1]; at 10 mM) is on record?
**A.** only partial inhibition

**Q.** And the “effect on erythrocyte-derived enzyme” value ([1]; up to 100 μM)?
**A.** no effect

**Q.** And the “inhibition of plant-derived enzyme” value ([2]; at 10 mM)?
**A.** only partial inhibition

**Q.** What about the “effect on plant-derived enzyme” value ([2]; up to 100 μM) of the same molecule?
**A.** no effect

**Q.** With `O=S(=O)(F)Cc1ccccc1` [PMSF, phehylmethylsulfonyl fluoride] as the molecule, how does the “inhibition of plant derived rAChE” value [2] read?
**A.** can inhibit

**Q.** Which “inhibition of plant derived rAChE” value [2] does the source give for `CN(C)C(=O)Oc1cccc([N+](C)(C)C)c1` [neostigmine] here?
**A.** can inhibit

**Q.** For `CCOP(=O)(OCC)Oc1ccc([N+](=O)[O-])cc1` [paraoxon, diethyl p-nitrophenyl phosphate], which “susceptibility of plant-derived E4 enzyme relative to equivalent recombinant enzyme from transgenic mice” value [2] is on record?
**A.** somewhat less susceptible

**Q.** And the “inhibition of plant derived rAChE” value [2]?
**A.** can inhibit

B1: plant-derived hAChE (protein, UniProt P22303 32-614, looked up)
Acetylcholinesterase: EGREDAELLVTVRGGRLRGIRLKTPGGPVSAFLGIPFAEPPMGPRRFLPPEPKQPWSGVVDATTFQSVCYQYVDTLYPGFEGTEMWNPNRELSEDCLYLNVWTPYPRPTSPTPVLVWIYGGGFYSGASSLDVYDGRFLVQAERTVLVSMNYRVGAFGFLALPGSREAPGNVGLLDQRLALQWVQENVAAFGGDPTSVTLFGESAGAASVGMHLLSPPSRGLFHRAVLQSGAPNGPWATVGMGEARRRATQLAHLVGCPPGGTGGNDTELVACLRTRPAQVLVNHEWHVLPQESVFRFSFVPVVDGDFLSDTPEALINAGDFHGLQVLVGVVKDEGSYFLVYGAPGFSKDNESLISRAEFLAGVRVGVPQVSDLAAEAVVLHYTDWLHPEDPARLREALSDVVGDHNVVCPVAQLAGRLAAQGARVYAYVFEHRASTLSWPLWMGVPHGYEIEFIFGIPLDPSRNYTAEEKIFAQRLMRYWANFARTGDPNEPRDPKAPQWPPYTAGAQQYVSLDLRPLEVRRGLRAQACAFWNRFLPKLLSATDTLDEAERQWKAEFHRWSSYMVHWKNQFDHYSKQDRCSDL
modifications: plant-expressed
**Q.** With B1 as the molecule, how does the Km [3] read?
**A.** 440 ± 100 µM

**Q.** What about the “loss of AChE activity” value ([4]; 4 degrees C., after 24 hours) of the same molecule?
**A.** 20%

**Q.** What about the initial activity retained ([4]; 42 degrees, at least 30 minutes, total soluble protein extract) of the same molecule?
**A.** 50%

**Q.** And the “residual AChE activity” value ([4]; room temperature (~25 degrees C.), after 25 hours)?
**A.** 20%
